From patent US20170349546A1, “Light-Activated Two-Component Protein Binding Matrix” (National University of Singapore, priority 2014, published 2017)
Where no end group is shown, it is not given here. The star is where a group is joined. Biotin = O=C1N[C@H]2[C@H](CS[C@H]2CCCCC(=O)*)N1

Experiment: Spiropyran modified beads pull-down of biotinylated peptide, residual HRP-streptavidin measured in solution
Format: binding
Details: beads incubated with 10 μM peptide, washed twice with PBS, 1 μM HRP-conjugated streptavidin; exposed to light at time=60 minutes
Experimental: FIG. 3 is a line graph representing binding of peptides to beads selectively modified with a spiropyran molecule. The selectively modified beads were incubated with 10 μM of peptide B7, LAGPQMHGK (SEQ ID NO: 62), for the indicate length of time, and then washed twice with phosphate buffered saline (PBS). The beads were when incubated with 1 μM horseradish (HRP)-conjugated streptavidin, and the residual HRP-streptavidin was measured in solution. FIG. 3 illustrates the % absorbance of the beads after the indicated period of time. The higher the absorbance, the higher the concentration of streptavidin in the bulk solution. […]
Wash 1 mL agarose beads with 2 column volumes DMSO (take from bottle in anhydrous fashion). In different container, mix 2.5 mg spiropyran and 80 mg EDC and 100 mg of NHS. Dissolve these compounds in DMSO; wait for 10 minutes at room temp. Add beads (which are now in DMSO) to this mixture. Make sure good mixing/suspension, i.e. enough DMSO to fully suspend the entire matrix. Agitate for 12 hours. Wash modified matrix with DMSO×20 c.v. to wash out free compounds. Remove DMSO with water was ×20 column volumes. Then store in water or 20% ethanol. See FIG. 7 for examples of bead conjugation techniques.

LAGPQMHGK (LAGPQMHGK(Biotin)) [peptide B7, biotinylated peptide aptamer, biotin covalently linked via the amine on the C-terminal lysine residue]
residual HRP-streptavidin in bulk solution (% absorbance) after exposure to light: released back into the bulk solution
